This test concerns the target T1, human GIP receptor (Homo sapiens, UniProt P48546).
T1 construct: host or cells: COS-7, transient transfection (calcium phosphate), cDNA in pCMV-Script
T1 sequence (P48546 22-466): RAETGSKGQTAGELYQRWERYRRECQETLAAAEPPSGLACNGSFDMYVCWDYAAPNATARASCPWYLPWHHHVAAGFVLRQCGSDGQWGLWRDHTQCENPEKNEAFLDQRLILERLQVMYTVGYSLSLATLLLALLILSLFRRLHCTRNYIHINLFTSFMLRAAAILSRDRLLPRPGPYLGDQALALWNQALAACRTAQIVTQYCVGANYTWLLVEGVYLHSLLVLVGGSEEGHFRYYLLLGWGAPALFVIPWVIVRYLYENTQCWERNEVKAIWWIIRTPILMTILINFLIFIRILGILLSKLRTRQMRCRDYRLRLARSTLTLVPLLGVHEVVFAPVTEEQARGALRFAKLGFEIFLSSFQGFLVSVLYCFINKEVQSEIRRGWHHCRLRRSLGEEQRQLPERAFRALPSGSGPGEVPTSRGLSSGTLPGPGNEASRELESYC
The test is described as follows: cAMP accumulation assay, agonism (ligand alone). The format is cell-based. Conditions: COS-7 cells, Table 1; for Emax: COS-7, intrinsic cAMP activity; for EC50: read-out: cAMP agonism nM (EC50). Here is the method:
COS-7 cells were cultured at 10% CO2 and 37° C. in Dulbecco's modified Eagle's medium 1885 supplemented with 10% fetal bovine serum, 2 mM glutamine, 180 units/ml penicillin, and 45 µg/ml streptomycin. Transient transfection of the COS-7 cells for cAMP accumulation and competition binding was performed using the calcium phosphate precipitation method with the addition of chloroquine^46-47.
Transient transfected COS-7 cells expressing the human GIP receptor were seeded in white 96-well plates with a density of 3.5*10^4/well. The day after, the cells were washed twice with Hepes buffered saline (HBS) buffer and incubated with HBS and 1 mM 3-isobutyl-1-methylxanthine (IBMX) for 30 min at 37° C. To test for agonistic properties, ligands were added and incubated for 30 min at 37° C. In order to test for antagonistic properties, the cells were preincubated with the antagonists for 10 min prior to the addition of the agonist and subsequent incubated for 20 additional min. The HitHunter™ cAMP XS assay (DiscoveRx) was carried out according to the manufacturer's instructions.
IC50, EC50, and Ki values were determined by nonlinear regression. These were carried out with the GraphPad Prism 6.0 software (GraphPad, San Diego, Calif., USA) and Microsoft Excel™. Ki values were based on the formula for one class of binding sites in homologous competition binding studies and the Cheng Prussoffs formula, respectively (DeBlasi et al., 1989). To determine the HSA binding potential, the fold change in affinity (as determined by IC50) was calculated as IC50 (plus HSA)/IC50 (minus HSA).
On the technique in general: Changes in cAMP serve as a functional read-out for many G protein-coupled receptors.

Peptide text beside a SMILES is read from it. * marks the point of attachment. C16 diacid = O=C(O)CCCCCCCCCCCCCCC(=O)*

With `CC[C@H](C)[C@H](NC(=O)[C@H](CO)NC(=O)[C@H](Cc1ccc(O)cc1)NC(=O)[C@H](CC(=O)O)NC(=O)[C@H](CO)NC(=O)[C@@H](NC(=O)[C@H](Cc1ccccc1)NC(=O)[C@@H](NC(=O)CNC(=O)[C@@H](N)CCC(=O)O)[C@@H](C)O)[C@@H](C)CC)C(=O)N[C@@H](C)C(=O)N[C@@H](CCSC)C(=O)N[C@@H](CC(=O)O)C(=O)N[C@@H](CCCCN)C(=O)N[C@H](C(=O)N[C@@H](Cc1c[nH]cn1)C(=O)N[C@@H](CCC(N)=O)C(=O)N[C@@H](CCC(N)=O)C(=O)N[C@@H](CC(=O)O)C(=O)N[C@@H](Cc1ccccc1)C(=O)N[C@@H](CCCCNC(=O)CCCCCCCCCCCCCCC(=O)O)C(=O)N[C@@H](CC(N)=O)C(=O)N[C@@H](Cc1c[nH]c2ccccc12)C(=O)N[C@@H](CC(C)C)C(=O)N[C@@H](CC(C)C)C(=O)N[C@@H](C)C(=O)N[C@@H](CCC(N)=O)C(=O)N[C@@H](CCCCN)C(N)=O)[C@@H](C)CC` [AT312, [hGIP(3-30)NH2[V23K]-C16diacid/23]] (H-EGTFISDYSIAMDKIHQQDFK(C16 diacid)NWLLAQK-NH2; N-terminus assumed), the Emax (usually the maximal effect, on the per cent scale that the assay sets) is 54%.

`CC[C@H](C)[C@H](NC(=O)[C@H](CO)NC(=O)[C@H](Cc1ccc(O)cc1)NC(=O)[C@H](CC(=O)O)NC(=O)[C@H](CO)NC(=O)[C@@H](NC(=O)[C@H](Cc1ccccc1)NC(=O)[C@@H](N)CCCCNC(=O)CCCCCCCCCCCCCCC(=O)O)[C@@H](C)CC)C(=O)N[C@@H](C)C(=O)N[C@@H](CCSC)C(=O)N[C@@H](CC(=O)O)C(=O)N[C@@H](CCCCN)C(=O)N[C@H](C(=O)N[C@@H](Cc1c[nH]cn1)C(=O)N[C@@H](CCC(N)=O)C(=O)N[C@@H](CCC(N)=O)C(=O)N[C@@H](CC(=O)O)C(=O)N[C@@H](Cc1ccccc1)C(=O)N[C@H](C(=O)N[C@@H](CC(N)=O)C(=O)N[C@@H](Cc1c[nH]c2ccccc12)C(=O)N[C@@H](CC(C)C)C(=O)N[C@@H](CC(C)C)C(=O)N[C@@H](C)C(=O)N[C@@H](CCC(N)=O)C(=O)N[C@@H](CCCCN)C(N)=O)C(C)C)[C@@H](C)CC` [AT293, [hGIP(5-30)NH2[T5KK]-C16diacid/5]] yielded an Emax of 0%.

On to `CC[C@H](C)[C@H](NC(=O)[C@H](CCCCN)NC(=O)[C@H](CC(=O)O)NC(=O)[C@H](CCSC)NC(=O)[C@H](C)NC(=O)[C@H](CCCCNC(=O)CCCCCCCCCCCCCCC(=O)O)NC(=O)[C@H](CO)NC(=O)[C@H](Cc1ccc(O)cc1)NC(=O)[C@H](CC(=O)O)NC(=O)[C@H](CO)NC(=O)[C@@H](NC(=O)[C@H](Cc1ccccc1)NC(=O)[C@@H](NC(=O)CNC(=O)[C@@H](N)CCC(=O)O)[C@@H](C)O)[C@@H](C)CC)C(=O)N[C@@H](Cc1c[nH]cn1)C(=O)N[C@@H](CCC(N)=O)C(=O)N[C@@H](CCC(N)=O)C(=O)N[C@@H](CC(=O)O)C(=O)N[C@@H](Cc1ccccc1)C(=O)N[C@H](C(=O)N[C@@H](CC(N)=O)C(=O)N[C@@H](Cc1c[nH]c2ccccc12)C(=O)N[C@@H](CC(C)C)C(=O)N[C@@H](CC(C)C)C(=O)N[C@@H](C)C(=O)N[C@@H](CCC(N)=O)C(=O)N[C@@H](CCCCN)C(N)=O)C(C)C` [AT303, [hGIP(3-30)NH2[I12K]-C16diacid/12]] (H-EGTFISDYSK(C16 diacid)AMDKIHQQDFVNWLLAQK-NH2; N-terminus assumed), for which the Emax amounted to 24.2% and the EC50 (commonly the concentration at which the effect is half-maximal) was determined as 28 nM.

For `CC[C@H](C)[C@H](NC(=O)[C@H](CO)NC(=O)[C@H](Cc1ccc(O)cc1)NC(=O)[C@H](CC(=O)O)NC(=O)[C@H](CO)NC(=O)[C@@H](NC(=O)[C@H](Cc1ccccc1)NC(=O)[C@@H](NC(=O)CNC(=O)[C@@H](N)CCC(=O)O)[C@@H](C)O)[C@@H](C)CC)C(=O)N[C@@H](C)C(=O)N[C@@H](CCSC)C(=O)N[C@@H](CC(=O)O)C(=O)N[C@@H](CCCCN)C(=O)N[C@H](C(=O)N[C@@H](Cc1c[nH]cn1)C(=O)N[C@@H](CCC(N)=O)C(=O)N[C@@H](CCCCNC(=O)CCCCCCCCCCCCCCC(=O)O)C(=O)N[C@@H](CC(=O)O)C(=O)N[C@@H](Cc1ccccc1)C(=O)N[C@H](C(=O)N[C@@H](CC(N)=O)C(=O)N[C@@H](Cc1c[nH]c2ccccc12)C(=O)N[C@@H](CC(C)C)C(=O)N[C@@H](CC(C)C)C(=O)N[C@@H](C)C(=O)N[C@@H](CCC(N)=O)C(=O)N[C@@H](CCCCN)C(N)=O)C(C)C)[C@@H](C)CC` [AT309, [hGIP(3-30)NH2[Q20K]-C16diacid/20]] (H-EGTFISDYSIAMDKIHQK(C16 diacid)DFVNWLLAQK-NH2; N-terminus assumed), the “cAMP agonism Emax” value (intrinsic cAMP activity) was “no ag”.

Regarding `CC[C@H](C)[C@H](NC(=O)[C@H](CO)NC(=O)[C@H](Cc1ccc(O)cc1)NC(=O)[C@H](CC(=O)O)NC(=O)[C@H](CO)NC(=O)[C@@H](NC(=O)[C@H](Cc1ccccc1)NC(=O)[C@@H](NC(=O)[C@H](CCCCNC(=O)CCCCCCCCCCCCCCC(=O)O)NC(=O)[C@@H](N)CCC(=O)O)[C@@H](C)O)[C@@H](C)CC)C(=O)N[C@@H](C)C(=O)N[C@@H](CCSC)C(=O)N[C@@H](CC(=O)O)C(=O)N[C@@H](CCCCN)C(=O)N[C@H](C(=O)N[C@@H](Cc1c[nH]cn1)C(=O)N[C@@H](CCC(N)=O)C(=O)N[C@@H](CCC(N)=O)C(=O)N[C@@H](CC(=O)O)C(=O)N[C@@H](Cc1ccccc1)C(=O)N[C@H](C(=O)N[C@@H](CC(N)=O)C(=O)N[C@@H](Cc1c[nH]c2ccccc12)C(=O)N[C@@H](CC(C)C)C(=O)N[C@@H](CC(C)C)C(=O)N[C@@H](C)C(=O)N[C@@H](CCC(N)=O)C(=O)N[C@@H](CCCCN)C(N)=O)C(C)C)[C@@H](C)CC` [AT295, [hGIP(3-30)NH2[G4K]-C16diacid/4]], the Emax amounted to 78.6% and the EC50 turned out to be 2.6 nM.

`CC[C@H](C)[C@H](NC(=O)[C@H](CO)NC(=O)[C@H](Cc1ccc(O)cc1)NC(=O)[C@H](CC(=O)O)NC(=O)[C@H](CO)NC(=O)[C@@H](NC(=O)[C@H](Cc1ccccc1)NC(=O)[C@@H](NC(=O)CNC(=O)[C@@H](N)CCCCNC(=O)CCCCCCCCCCCCCCC(=O)O)[C@@H](C)O)[C@@H](C)CC)C(=O)N[C@@H](C)C(=O)N[C@@H](CCSC)C(=O)N[C@@H](CC(=O)O)C(=O)N[C@@H](CCCCN)C(=O)N[C@H](C(=O)N[C@@H](Cc1c[nH]cn1)C(=O)N[C@@H](CCC(N)=O)C(=O)N[C@@H](CCC(N)=O)C(=O)N[C@@H](CC(=O)O)C(=O)N[C@@H](Cc1ccccc1)C(=O)N[C@H](C(=O)N[C@@H](CC(N)=O)C(=O)N[C@@H](Cc1c[nH]c2ccccc12)C(=O)N[C@@H](CC(C)C)C(=O)N[C@@H](CC(C)C)C(=O)N[C@@H](C)C(=O)N[C@@H](CCC(N)=O)C(=O)N[C@@H](CCCCN)C(N)=O)C(C)C)[C@@H](C)CC` [AT294, [hGIP(3-30)NH2[E3K]-C16diacid/3]] returned an Emax of 74%.

Take `CC[C@H](C)[C@H](NC(=O)[C@H](CO)NC(=O)[C@H](Cc1ccc(O)cc1)NC(=O)[C@H](CC(=O)O)NC(=O)[C@H](CO)NC(=O)[C@@H](NC(=O)[C@H](Cc1ccccc1)NC(=O)[C@@H](NC(=O)CNC(=O)[C@@H](N)CCC(=O)O)[C@@H](C)O)[C@@H](C)CC)C(=O)N[C@@H](C)C(=O)N[C@@H](CCSC)C(=O)N[C@@H](CC(=O)O)C(=O)N[C@@H](CCCCN)C(=O)N[C@H](C(=O)N[C@@H](Cc1c[nH]cn1)C(=O)N[C@@H](CCC(N)=O)C(=O)N[C@@H](CCC(N)=O)C(=O)N[C@@H](CC(=O)O)C(=O)N[C@@H](Cc1ccccc1)C(=O)N[C@H](C(=O)N[C@@H](CC(N)=O)C(=O)N[C@@H](Cc1c[nH]c2ccccc12)C(=O)N[C@@H](CC(C)C)C(=O)N[C@@H](CC(C)C)C(=O)N[C@@H](CCCCNC(=O)CCCCCCCCCCCCCCC(=O)O)C(=O)N[C@@H](CCC(N)=O)C(=O)N[C@@H](CCCCN)C(N)=O)C(C)C)[C@@H](C)CC` [AT317, [hGIP(3-30)NH2[A28K]-C16diacid/28]] (H-EGTFISDYSIAMDKIHQQDFVNWLLK(C16 diacid)QK-NH2; N-terminus assumed): the Emax is 21.8% and the EC50 was 62 nM.
